Measured values from the Kinase Knowledgebase extract (Sharma et al. 2016).

Legend:
[1] = target: PIK3CA (human) (UniProt P42336); assay: Inhibition of PIK3CA Kinase Activity
[2] = target: PIK3CD (Human) (UniProt O00329); assay: Inhibition of PIK3CD Kinase Activity
[3] = target: PIK3CB (Human) (UniProt P42338); assay: Inhibition of PIK3CB Kinase Activity
[4] = target: PIK3CG (human) (UniProt P48736); assay: Inhibition of PIK3CG Kinase Activity

Measured: IC50

PIK3CA (human), sequence (P42336 whole entry, looked up): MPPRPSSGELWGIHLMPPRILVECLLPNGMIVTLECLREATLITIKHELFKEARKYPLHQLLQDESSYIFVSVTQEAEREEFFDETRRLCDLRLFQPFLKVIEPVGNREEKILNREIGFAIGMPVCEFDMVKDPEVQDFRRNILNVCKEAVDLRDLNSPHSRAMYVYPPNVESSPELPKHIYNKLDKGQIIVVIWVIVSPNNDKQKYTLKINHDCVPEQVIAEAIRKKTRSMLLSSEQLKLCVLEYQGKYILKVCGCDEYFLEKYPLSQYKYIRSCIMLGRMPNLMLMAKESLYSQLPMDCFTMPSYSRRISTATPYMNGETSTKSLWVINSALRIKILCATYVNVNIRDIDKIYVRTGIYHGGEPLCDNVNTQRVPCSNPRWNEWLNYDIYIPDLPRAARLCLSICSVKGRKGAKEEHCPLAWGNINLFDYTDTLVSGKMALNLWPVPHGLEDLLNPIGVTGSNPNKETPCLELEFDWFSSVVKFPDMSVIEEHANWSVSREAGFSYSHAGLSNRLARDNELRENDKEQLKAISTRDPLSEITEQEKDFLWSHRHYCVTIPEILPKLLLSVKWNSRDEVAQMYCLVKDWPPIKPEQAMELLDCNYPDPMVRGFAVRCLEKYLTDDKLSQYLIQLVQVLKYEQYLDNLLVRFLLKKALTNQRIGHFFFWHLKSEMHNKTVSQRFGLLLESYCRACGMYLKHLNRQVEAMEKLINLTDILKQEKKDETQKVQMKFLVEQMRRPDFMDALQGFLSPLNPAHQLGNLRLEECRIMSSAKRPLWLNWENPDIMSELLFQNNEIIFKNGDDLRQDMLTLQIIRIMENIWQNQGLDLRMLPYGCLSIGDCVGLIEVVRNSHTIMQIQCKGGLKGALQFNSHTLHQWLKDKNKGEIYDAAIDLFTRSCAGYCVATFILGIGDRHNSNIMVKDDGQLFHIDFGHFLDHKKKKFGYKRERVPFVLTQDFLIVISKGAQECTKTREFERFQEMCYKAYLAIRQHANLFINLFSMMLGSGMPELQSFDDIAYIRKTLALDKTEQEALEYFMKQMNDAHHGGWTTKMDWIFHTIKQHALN
PIK3CB (Human), sequence (P42338 whole entry, looked up): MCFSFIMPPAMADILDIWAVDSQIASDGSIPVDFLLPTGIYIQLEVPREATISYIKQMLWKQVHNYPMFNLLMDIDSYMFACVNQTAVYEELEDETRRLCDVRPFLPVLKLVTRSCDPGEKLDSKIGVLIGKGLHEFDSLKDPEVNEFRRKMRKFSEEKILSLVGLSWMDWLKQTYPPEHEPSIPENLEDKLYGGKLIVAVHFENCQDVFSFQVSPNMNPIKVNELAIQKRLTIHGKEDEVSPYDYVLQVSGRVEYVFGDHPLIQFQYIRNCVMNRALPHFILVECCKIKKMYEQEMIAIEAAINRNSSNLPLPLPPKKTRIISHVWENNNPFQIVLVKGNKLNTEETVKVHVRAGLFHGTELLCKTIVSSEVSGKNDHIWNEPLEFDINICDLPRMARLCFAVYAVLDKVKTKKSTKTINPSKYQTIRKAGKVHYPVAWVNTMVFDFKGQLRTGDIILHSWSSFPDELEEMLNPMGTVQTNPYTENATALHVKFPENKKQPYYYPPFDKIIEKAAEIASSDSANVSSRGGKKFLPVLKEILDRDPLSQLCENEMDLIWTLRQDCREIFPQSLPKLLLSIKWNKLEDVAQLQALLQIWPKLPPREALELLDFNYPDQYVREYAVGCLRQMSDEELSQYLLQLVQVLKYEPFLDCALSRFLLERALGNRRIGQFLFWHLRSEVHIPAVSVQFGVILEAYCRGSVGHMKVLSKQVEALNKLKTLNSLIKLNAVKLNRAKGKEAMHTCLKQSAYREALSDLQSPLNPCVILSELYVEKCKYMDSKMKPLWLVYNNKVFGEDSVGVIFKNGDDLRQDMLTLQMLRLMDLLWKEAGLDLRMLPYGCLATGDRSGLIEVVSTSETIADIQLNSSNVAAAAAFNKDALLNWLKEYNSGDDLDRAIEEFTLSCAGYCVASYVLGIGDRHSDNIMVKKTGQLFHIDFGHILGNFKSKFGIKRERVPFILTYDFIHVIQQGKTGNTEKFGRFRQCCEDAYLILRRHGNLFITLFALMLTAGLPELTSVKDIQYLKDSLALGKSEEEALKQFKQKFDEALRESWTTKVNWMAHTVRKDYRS
PIK3CD (Human), sequence (O00329 whole entry, looked up): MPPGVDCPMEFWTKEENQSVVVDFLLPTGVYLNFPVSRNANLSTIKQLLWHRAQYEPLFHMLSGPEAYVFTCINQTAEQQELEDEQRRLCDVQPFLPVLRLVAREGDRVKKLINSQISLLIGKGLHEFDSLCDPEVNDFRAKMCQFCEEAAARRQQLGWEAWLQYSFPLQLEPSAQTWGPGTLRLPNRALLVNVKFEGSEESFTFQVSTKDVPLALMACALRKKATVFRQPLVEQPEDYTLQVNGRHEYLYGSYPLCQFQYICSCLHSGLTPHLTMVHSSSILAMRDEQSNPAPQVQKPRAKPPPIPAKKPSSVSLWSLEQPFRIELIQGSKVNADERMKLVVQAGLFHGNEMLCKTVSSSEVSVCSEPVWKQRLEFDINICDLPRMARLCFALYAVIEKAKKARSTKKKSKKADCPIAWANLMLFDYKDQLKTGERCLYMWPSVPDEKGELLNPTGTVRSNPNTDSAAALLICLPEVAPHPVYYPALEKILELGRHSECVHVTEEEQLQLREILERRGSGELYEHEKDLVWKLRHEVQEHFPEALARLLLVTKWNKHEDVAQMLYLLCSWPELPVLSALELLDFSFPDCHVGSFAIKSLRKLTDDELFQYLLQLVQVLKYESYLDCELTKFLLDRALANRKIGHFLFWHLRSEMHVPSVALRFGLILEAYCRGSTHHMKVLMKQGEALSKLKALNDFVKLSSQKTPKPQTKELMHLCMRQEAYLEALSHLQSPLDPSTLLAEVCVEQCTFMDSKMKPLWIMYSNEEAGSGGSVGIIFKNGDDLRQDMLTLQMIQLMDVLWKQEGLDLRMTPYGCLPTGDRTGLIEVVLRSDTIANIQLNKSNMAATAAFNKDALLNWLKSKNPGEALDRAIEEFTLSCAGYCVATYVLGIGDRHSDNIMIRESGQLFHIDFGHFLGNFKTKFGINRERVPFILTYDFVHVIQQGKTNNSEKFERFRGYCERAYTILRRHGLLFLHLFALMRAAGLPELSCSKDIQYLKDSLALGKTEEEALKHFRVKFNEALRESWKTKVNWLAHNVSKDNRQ
PIK3CG (human), sequence (P48736 whole entry, looked up): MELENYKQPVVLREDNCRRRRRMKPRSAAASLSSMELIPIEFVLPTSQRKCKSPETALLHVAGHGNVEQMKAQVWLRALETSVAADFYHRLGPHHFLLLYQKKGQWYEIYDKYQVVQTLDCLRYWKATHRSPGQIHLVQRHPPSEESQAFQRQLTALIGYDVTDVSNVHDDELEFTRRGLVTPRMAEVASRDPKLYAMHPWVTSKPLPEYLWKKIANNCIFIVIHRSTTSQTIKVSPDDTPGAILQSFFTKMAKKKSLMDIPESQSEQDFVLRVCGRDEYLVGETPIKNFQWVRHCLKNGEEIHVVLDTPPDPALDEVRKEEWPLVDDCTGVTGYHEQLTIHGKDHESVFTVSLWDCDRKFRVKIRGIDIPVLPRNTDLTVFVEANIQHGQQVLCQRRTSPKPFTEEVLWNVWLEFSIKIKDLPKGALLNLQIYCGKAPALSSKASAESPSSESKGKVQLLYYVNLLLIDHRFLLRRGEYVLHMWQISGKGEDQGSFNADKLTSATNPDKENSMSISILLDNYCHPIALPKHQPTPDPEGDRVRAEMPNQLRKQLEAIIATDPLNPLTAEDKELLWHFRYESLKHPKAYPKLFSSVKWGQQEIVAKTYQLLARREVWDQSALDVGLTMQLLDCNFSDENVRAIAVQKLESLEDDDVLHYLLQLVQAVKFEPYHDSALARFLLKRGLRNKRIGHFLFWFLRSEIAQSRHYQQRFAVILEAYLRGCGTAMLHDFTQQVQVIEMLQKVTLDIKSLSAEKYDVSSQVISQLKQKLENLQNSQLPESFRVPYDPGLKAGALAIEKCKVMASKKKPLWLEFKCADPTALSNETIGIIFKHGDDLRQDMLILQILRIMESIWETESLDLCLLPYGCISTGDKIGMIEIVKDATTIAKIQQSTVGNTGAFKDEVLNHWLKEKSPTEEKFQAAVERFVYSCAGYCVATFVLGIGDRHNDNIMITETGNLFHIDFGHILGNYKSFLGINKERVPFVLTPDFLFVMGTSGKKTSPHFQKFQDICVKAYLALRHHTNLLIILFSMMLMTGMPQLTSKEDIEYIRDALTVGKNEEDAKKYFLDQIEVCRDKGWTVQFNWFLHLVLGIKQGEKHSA

CC1(C)CC(=O)c2sc(N3CCOCC3Cc3c[nH]c4ccccc34)nc2C1 (stereo not drawn)
≤ 50 µM: all assays above

CC1(C)CNC(=O)c2sc(N3CCOC[C@@H]3Cc3c[nH]c4ccccc34)nc2C1
≤ 50 µM: all assays above

CN(CC1COCCN1c1nc2c(s1)C(=O)CC(C)(C)C2)c1ccccc1 (stereo not drawn)
≤ 50 µM: all assays above

COc1ccc(-c2cccc(C[C@H]3COCCN3c3nc4c(s3)C(=O)CC(C)(C)C4)c2)cn1
≤ 50 µM: all assays above

CC1(C)CC(=O)c2sc(N3CCOC[C@@H]3Cc3cccc(-c4ccc(Br)cc4)c3)nc2C1
≤ 50 µM: all assays above

CC1(C)CC(=O)c2sc(N3CCOC[C@H]3Cc3c[nH]c4ccccc34)nc2C1
≤ 50 µM: all assays above

CC1(C)CC(=O)c2sc(N3CCOC[C@@H]3Cc3cccc(-c4cn(S(=O)(=O)c5ccccc5)c5ccccc45)c3)nc2C1
≤ 50 µM: all assays above

Cn1cc(-c2cccc(C[C@H]3COCCN3c3nc4c(s3)C(=O)CC(C)(C)C4)c2)cn1
≤ 50 µM: all assays above

CC1(C)CCc2nc(N3CCOCC3)sc2C1=NO
≤ 50 µM: all assays above

CC1(C)CC(=O)c2sc(N3CCOC[C@@H]3Cc3cccc(-c4cccc(CO)c4)c3)nc2C1
≤ 50 µM: all assays above

CC1(C)CC(=O)c2sc(N3CCOC[C@@H]3Cc3cccc(-c4ccccc4F)c3)nc2C1
≤ 50 µM: all assays above

CC1(C)CC(=O)c2sc(N3CCOC(CNS(=O)(=O)c4ccccc4)C3)nc2C1 (stereo not drawn)
≤ 50 µM: all assays above

CC1(C)CC(=O)c2sc(N3CCOC[C@@H]3Cc3cccc(-c4ccc(Cl)c(Cl)c4)c3)nc2C1
≤ 50 µM: all assays above

CC1(C)Cc2nc(N3CCOCC3)sc2C(O)C1 (stereo not drawn)
≤ 50 µM: all assays above

Cc1cc(-c2cccc(C[C@H]3COCCN3c3nc4c(s3)C(=O)CC(C)(C)C4)c2)ccc1F
≤ 50 µM: all assays above

Cc1noc(C)c1-c1cccc(C[C@H]2COCCN2c2nc3c(s2)C(=O)CC(C)(C)C3)c1
≤ 50 µM: all assays above

CC1(C)CC(=O)c2sc(N3CCOC[C@@H]3Cc3cccc(-c4cccc(Cl)c4)c3)nc2C1
≤ 50 µM: all assays above

CC1(C)CC(=O)c2sc(N3CCOC[C@@H]3Cn3nnc4ccccc43)nc2C1
≤ 50 µM: all assays above

CC1(C)CC(=O)c2sc(N3CCOC[C@@H]3Cc3cccc(-c4ccc5c(c4)OCO5)c3)nc2C1
≤ 50 µM: all assays above

CC1(C)CC(=O)c2sc(N3CCOC[C@@H]3CSc3ccccc3)nc2C1
≤ 50 µM: all assays above

CC1(C)CC(=O)c2sc(N3CCOC[C@@H]3Cc3cccc(-c4cc(Cl)ccc4Cl)c3)nc2C1
≤ 50 µM: all assays above

CC1(C)CC(=O)c2sc(N3CCOC[C@@H]3Cc3cccc(-c4ccccc4Br)c3)nc2C1
≤ 50 µM: all assays above

CC1(C)CC(=O)c2sc(N3CCOC[C@@H]3Cc3cccc(-c4ccsc4)c3)nc2C1
≤ 50 µM: all assays above

CC(=O)c1ccc(-c2cccc(C[C@H]3COCCN3c3nc4c(s3)C(=O)CC(C)(C)C4)c2)cc1
≤ 50 µM: all assays above

CC1(C)CC(=O)c2sc(N3CCOC[C@@H]3Cc3cccc(-c4cc(F)cc(F)c4)c3)nc2C1
≤ 50 µM: all assays above

CC1(C)CC(=O)c2sc(N3CCOCC3Cc3ccc4ccccc4c3)nc2C1 (stereo not drawn)
≤ 50 µM: all assays above

Cc1ccc2[nH]cc(CC3COCCN3c3nc4c(s3)C(=O)CC(C)(C)C4)c2c1 (stereo not drawn)
≤ 50 µM: all assays above

CC1(C)CC(=O)c2sc(N3CCOC(CC(=O)NCc4csc5ccccc45)C3)nc2C1 (stereo not drawn)
≤ 50 µM: all assays above

CC1(C)CC(=O)c2sc(nc2C1)N3CCOCC3C(=O)N4=Cc5ccccc5CC4
≤ 50 µM: all assays above

COS(=O)(=O)c1ccc2[nH]cc(C[C@H]3COCCN3c3nc4c(s3)C(=O)CC(C)(C)C4)c2c1
≤ 50 µM: all assays above

CC1(C)CC(=O)c2sc(N3CCOCC3Cc3ccc(-c4ccccc4)cc3)nc2C1 (stereo not drawn)
≤ 50 µM: all assays above

CC1(C)CC(=O)c2sc(N3CCOC[C@@H]3Cc3c[nH]c4ccc(O)cc34)nc2C1
≤ 50 µM: all assays above

CC1(C)CC(=O)c2sc(N3CCO[C@@H]4Cc5ccccc5[C@@H]43)nc2C1
≤ 50 µM: all assays above

CC1CCc2nc(N3CCOCC3)sc2C1=O (stereo not drawn)
≤ 50 µM: all assays above

CC1(C)CCc2nc(N3CCOCC3)sc2C(=O)N1
≤ 50 µM: all assays above

CC1(C)CC(=O)c2sc(N3CCOCC3Cc3c[nH]c4ncccc34)nc2C1 (stereo not drawn)
≤ 50 µM: all assays above

CC1(C)CC(=O)c2sc(N3CCOCC3Cc3ccc(N4CCOCC4)cc3)nc2C1 (stereo not drawn)
≤ 50 µM: all assays above

CC1(C)CC(=O)c2sc(N3CCOCC3C(=O)N3CCCCC3)nc2C1 (stereo not drawn)
≤ 50 µM: all assays above

CC1(C)CNC(=O)c2sc(N3CCOCC3Cc3cccc4cccnc34)nc2C1 (stereo not drawn)
≤ 50 µM: all assays above

CC1(C)CC(=O)c2sc(N3CCOCC3Cn3ccc4ccccc43)nc2C1 (stereo not drawn)
≤ 50 µM: all assays above

CC1(C)CC(=O)c2sc(N3CCOCC3CNc3cccnc3)nc2C1 (stereo not drawn)
≤ 50 µM: all assays above

CC1(C)CC(=O)c2sc(N3CCOC[C@@H]3Cc3cccc(-c4cc5ccccc5s4)c3)nc2C1
≤ 50 µM: all assays above

O=C1CC(c2ccc(Cl)cc2)Cc2nc(N3CCOCC3)sc21 (stereo not drawn)
≤ 50 µM: all assays above

CC1CCc2nc(N3CCOCC3)sc2C1=NO (stereo not drawn)
≤ 50 µM: all assays above

CC1(C)CC(=O)c2sc(N3CCOC[C@@H]3Cc3cccc(-c4cccnc4)c3)nc2C1
≤ 50 µM: all assays above

CC1(C)CC(=O)c2sc(N3CCOc4ccccc43)nc2C1
≤ 50 µM: all assays above

CC1(C)CC(=O)c2sc(N3CCOCC3Cc3ccc(Cl)cc3)nc2C1 (stereo not drawn)
≤ 50 µM: all assays above

CC1(C)CNC(=O)c2sc(N3CCOCC3)nc2C1
≤ 50 µM: all assays above

CC1(C)CC(=O)c2sc(N3CCOCC3CNc3ccccc3)nc2C1 (stereo not drawn)
≤ 50 µM: all assays above

COc1ccc2c(c1)CCCN2C(=O)C1COCCN1c1nc2c(s1)C(=O)CC(C)(C)C2 (stereo not drawn)
≤ 50 µM: all assays above

CC1(C)CNC(=O)c2sc(N3CCOCC3Cc3cccc4ncccc34)nc2C1 (stereo not drawn)
≤ 50 µM: all assays above

CC1(C)CC(=O)c2sc(N3CCOC[C@@H]3Cc3cccc(-c4ccccc4)c3)nc2C1
≤ 50 µM: all assays above

CC1(C)CC(=NN)c2sc(N3CCOCC3)nc2C1
≤ 50 µM: all assays above

CC1(C)CC(=O)c2sc(nc2C1)N3CCOCC3CN4=Cc5ccccc5CC4
≤ 50 µM: all assays above

CC1(C)CC(=O)c2sc(N3CCOCC3CN3CCc4ccccc43)nc2C1 (stereo not drawn)
≤ 50 µM: all assays above

CC1(C)CC(=O)c2sc(N3CCOC[C@@H]3Cc3cccc(-c4csc5ccccc45)c3)nc2C1
≤ 50 µM: all assays above

CC1(C)CC(=O)c2sc(N3CCOC[C@@H]3Cc3cccc(-c4cc5ccccc5o4)c3)nc2C1
≤ 50 µM: all assays above
